Melting point data for 65 molecules are collected here from a melting point compilation (Tetko et al.; mined from patent text by program, amines drawn as free bases though some values may be those of a salt).

By melting point is commonly meant the temperature, or range, at which the solid turns liquid.

Structures are written as SMILES.

The molecule `Nc1c(-c2ccccc2)nn2c1ccc1ccccc12` had a melting point of 255 to 258 °C.

`CCOC(=O)Cc1c(C(F)(F)F)nc(C)[nH]c1=O` yielded a melting point of 108 to 110 °C.

On to `O=C(O)CCC1c2ccccc2C(=O)N1c1ccccc1` (stereo not given), for which the melting point is 186 to 187 °C.

In turn, `O=c1[nH]c2ccc(S(=O)CCN3CCC(Cc4ccc(F)cc4)CC3)cc2o1` (stereo not given) gave a melting point of 202 to 204 °C.

For `O=C(O)C1CN(c2ccc(-c3noc(CCl)n3)cc2)C(=O)O1` (stereo not given), the melting point was in the range of 178 to 181 °C.

`c1ccc(C(Sc2nnn[nH]2)c2ccccc2)cc1` yielded a melting point of 132 to 134 °C.

The molecule `Cc1cc(-n2cc(C#N)nc2C)cc2ccc(=O)[nH]c12` displayed a melting point greater than 350 °C.

The molecule `CC1(C)Cc2cc(OCCO)c3c(c2C(c2ccccc2)=N1)CC(C)(C)O3` returned a melting point of 90 to 92 °C.

Consider `COC(=O)COc1cc(C(=O)N2CCOCC2)ccc1[N+](=O)[O-]`, for which the melting point fell in the range of 140 to 142 °C.

For the molecule `CC(C)(C)C(=O)NS(=O)(=O)c1cccc([N+](=O)[O-])c1`, the melting point fell in the range of 178 to 181 °C.

Take `COc1ccc(Cc2nc3n(c2Cc2ccc(OC)cc2)CCS3(=O)=O)cc1`: the melting point is 231 to 232 °C.

`CC1=C(c2cccc(Cl)c2)n2ncc(C#N)c2N(C(=O)CCl)C1` showed a melting point of 132 to 135 °C.

In turn, `CCCc1cc(C(=O)NC(C)(C)C)no1` gave a melting point of 34 to 37 °C.

In the case of `Nc1ccc(C(=O)Nc2ccc3oc4c(c3c2)CCCC4)cc1`, the melting point was in the range of 207 to 208 °C.

`Cc1nc(N)c2c(=O)n(C)c(=O)n(C)c2n1` came in with a melting point of 267 °C.

On to `O=C(O)c1cc2cc(Cl)ccc2nc1NC(Cc1ccc(Oc2ccc3ccccc3n2)cc1)C(=O)O` (stereo not given), for which the melting point was determined as 136 °C.

Consider `CC(C)Cn1c(-c2c(F)cccc2F)cnc(-n2cccn2)c1=O`, for which the melting point fell in the range of 91 to 92 °C.

On to `COc1ccc(S(=O)(=O)C[N+](=O)[O-])s1`, for which the melting point was 70 to 71 °C.

In the case of `Cc1nn(-c2ccc(Cl)nn2)c(C)c1[N+](=O)[O-]`, the melting point lay in the range of 164 to 167 °C.

Take `CC(C)C[C@@H](C#N)NC(=O)[C@@H]1CCCC[C@@H]1NC(=O)c1cc2ccccc2n1CC(C)(C)O`: the melting point fell in the range of 102 to 106 °C.

`COc1ccc(C=Cc2nnc(C(Cl)(Cl)Cl)o2)cc1` had a melting point of 140 to 142 °C.

Consider `Cc1oc2c(C)c(C)c(NCc3ccc(F)cc3)c(C)c2c1-c1ccc(F)cc1`, for which the melting point was in the range of 107 to 109 °C.

`CCCCOC1OC(CO)C(O)C(O)C1(O)N(Cc1cccc(C)c1C)C(=O)N(CCCl)N=O` (stereo not given) displayed a melting point of 90 to 92 °C.

In the case of `COc1cc(NC(=C(C#N)S(C)(=O)=O)C(C)C)cc(OC)c1`, the melting point was in the range of 135 to 136 °C.

Molecule `COC(=O)c1cc(C(=O)OC)c(NCCCc2ccccc2)cn1` gave a melting point of 102 to 104 °C.

The molecule `CCOC(=O)c1cnc2n(c1=O)C(C)CCC2=NNc1ccccc1` (stereo not given) displayed a melting point of 138 to 139 °C.

`COC(=O)C1Cc2c([nH]c3ccccc23)C(c2ccc(Cl)cc2Cl)N1C(=O)CCl` (stereo not given) came in with a melting point of 106 to 109 °C.

`CCOC(=O)Cc1csc(NC(N)=O)n1` gave a melting point of 173 to 174 °C.

In turn, `CSc1nn2c(N3CCN(CCO)CC3)cc(C)nc2c1S(=O)(=O)c1ccccc1` yielded a melting point of 189 to 190 °C.

As for `OC1CSC(Oc2cccc(-c3ccnc(Cl)c3)c2)C(O)C1O` (stereo not given), the melting point amounted to 207 °C.

For `CC(O)(CSc1ccc(S(=O)(=O)c2ccccc2)cc1)C(F)(F)F` (stereo not given), the melting point lay in the range of 100 to 102 °C.

`O=C(c1ccc(F)cc1)C1CCN(CCCN2c3cccc4cccc(c34)S2(=O)=O)CC1` came in with a melting point of 132 °C.

On to `CC(=O)N(C)c1cc2c(nc(C)n2C)c2c1CCC(c1ccccc1)O2` (stereo not given), for which the melting point lay in the range of 214 to 216 °C.

Turning to `CC(C)NC(=O)Nc1cccc2c1C(=O)C1(O)c3ccc(C(C)C)cc3OC21O` (stereo not given), the melting point was 81 to 85 °C.

As to `ClCc1ccc2oc(-c3cccs3)nc2c1`, the melting point fell in the range of 152 to 153 °C.

The molecule `CC(C(=O)O)c1cc(Cl)c(N2CCOCC2)cc1O` (stereo not given) gave a melting point of 198 to 200 °C.

For the molecule `CC(CCc1ccccc1)Nc1nc(Cl)nc(NS(C)(=O)=O)n1` (stereo not given), the melting point amounted to 143 °C.

The molecule `COC(=O)C(Cc1ccccc1)Oc1ccc2cc(-c3csc(-c4ccccc4)n3)ccc2c1Br` (stereo not given) displayed a melting point of 96 to 101 °C.

On to `CCCn1nc2c(N)nc3ccccc3c2c1CCN1CCCS1(=O)=O`, for which the melting point was in the range of 201 to 202 °C.

In turn, `Cn1ncc(/C=C/C(=O)Nc2ccc(CCc3cscn3)cc2)c1-c1ccc(F)cc1` displayed a melting point of 211 to 212 °C.

In the case of `Nc1nc2c(s1)CCN(CC=Cc1ccc3[nH]ccc3c1)CC2`, the melting point is 60 to 65 °C.

Take `CCOC(=O)C=Cc1ccn(C)c(=O)c1`: the melting point lay within 126 to 127 °C.

As for `Cc1ccc(-c2ccc3c(c2)C=C(C(=O)O)CC(C)O3)cc1` (stereo not given), the melting point was 224 to 225 °C.

For `CCOc1ccc2[nH]c(C(=O)O)cc2c1`, the melting point amounted to 180 °C.

In the case of `O=C1Nc2cccnc2N(C(=O)CN2CCN(CCN3CCOCC3)CC2)c2ccccc21`, the melting point lay within 227 to 229 °C.

`CC(C)C(NC(=O)OCc1ccccc1)(C(=O)OCc1ccccc1)C1CO1` (stereo not given) showed a melting point of 74 to 76 °C.

Regarding `CC(C)(C)c1cc(SCC(=O)Nc2c(Cl)cccc2Cl)cc(C(C)(C)C)c1O`, the melting point was in the range of 168 to 170 °C.

Turning to `CC(C)(C)C1=CC(=C(C#N)C#N)C=C(c2cccs2)S1(=O)=O`, the melting point lay within 164 to 165 °C.

`O=C1NCCc2ccc(OCCCCN3CCN(c4cccc5c4OCCC5)CC3)nc2N1` had a melting point of 154 to 156 °C.

`Cc1nnc(CNc2c(C)cccc2C)s1` displayed a melting point of 68 to 69 °C.

In turn, `COc1cc(Cn2[nH]c(N)cc2=O)ccc1Cl` gave a melting point of 148 °C.

Molecule `Fc1ccc(-c2ccc(CCNc3ncnc4nccnc34)cc2)cn1` registered a melting point of 184 to 186 °C.

In the case of `CC(=O)N(C1=C(Cl)C(=O)c2c(cnn2C)C1=O)C1CC1`, the melting point amounted to 171 °C.

In turn, `CC(=O)NCCn1cccc1` had a melting point of 59 to 60 °C.

Regarding `O=[N+]([O-])c1cc(-c2ccoc2)ccc1Nc1cc(-n2ccnc2)ncn1`, the melting point lay in the range of 198 to 200 °C.

With `S=C(NC(=Nc1ccccc1)c1ccccc1)Nc1ccccc1`, the melting point was 143 to 144 °C.

As for `COc1cc2nc(N3CCN(C(=O)CC(=O)c4ccccc4)CC3)nc(N)c2cc1OC`, the melting point was 214 to 215 °C.

As to `COC(=O)COc1ccc(C(C)=O)c(O)c1`, the melting point was 101 to 103 °C.

In the case of `Cc1ccccc1OCC(O)CN(CCOc1ncccc1C(N)=O)Cc1ccccc1` (stereo not given), the melting point fell in the range of 109 to 112 °C.

The molecule `COCc1nnc(NC(=O)C2c3ccccc3Oc3ccccc32)o1` showed a melting point of 113 to 114 °C.

As for `CC(C)(O)c1cccc(S(N)(=O)=O)c1`, the melting point lay in the range of 107 to 108 °C.

For the molecule `CCOP(=O)(Cc1ccc(NC(=O)Cc2cnoc2-c2ccccc2)cc1)OCC`, the melting point was 132 to 133 °C.

`COC(=O)C(Cc1cccs1)NC(=O)[C@H](Cc1cccc2ccccc12)NC(=O)OCc1ccccc1` (mixture of isomers) came in with a melting point of 140 to 141 °C.

Regarding `Cn1cnc2nc(-c3ccc(C(F)(F)F)cc3)nn2c1=S`, the melting point lay in the range of 270 to 272 °C.

Molecule `CN1Cc2c(C#N)ncn2-c2cccc(Cl)c2C1=O` had a melting point of 238 to 240 °C.
